In patent US20090076152A1, “Novel Compounds Active as Muscarinic Receptor Antagonists” (priority 2007, published 2009):

Biological target: T1, human muscarinic M3 receptor (Homo sapiens, UniProt P20309)
T1 construct: expressed in transfected cells
Assay: hM3 β-Lac potency assay (NFAT-Betalactamase reporter in CHO-K1 cells)
Conditions: CHO cells recombinantly expressing human M3, NFAT β-lactamase reporter; inhibition of 80 nM carbamyl choline signal, 4 h; IC50 converted to Ki by Cheng-Prusoff; read-out: Cell based β-lactamase M3 Ki
Description: M3 potency was determined in CHO-K1 cells transfected with the NFAT-Betalactamase gene. CHO (Chinese Hamster Ovary) cells recombinantly expressing the human muscarinic M3 receptor were transfected with the NFAT_β-Lac_Zeo plasmid. Cells were grown in DMEM with Glutamax-1, supplemented with 25 mM HEPES(Life Technologies 32430-027), containing 10% FCS (Foetal Calf Serum; Sigma F-7524), […] Sodium pyruvate (Sigma S-8636), NEM (non-Essential Amino Acids; Invitrogen 11140-035) and 200 μg/ml Zeocin (Invitrogen R250-01).
Cells were harvested for assay when they reached 80-90% confluency using enzyme free cell Dissociation Solution (Life technologies 13151-014) incubated with the cells for 5 min at 37° C. in an atmosphere containing 5% CO2. Detached cells were collected in warmed growth media and centrifuged at 2000 rpm for 10 min, washed in PBS (Phosphate Buffered Saline; Life Technologies 14190-094) and centrifuged again as just described. The cells were re-suspended at 2×10^5 cells/ml in growth medium (composition as described above). 20 μl of this cell suspension was added to each well of a 384 well black clear bottomed plate (Greiner Bio One 781091-PFI). The assay buffer used was PBS supplemented with 0.05% Pluronic F-127 (Sigma 9003-11-6) and 2.5% DMSO. Muscarinic M3 receptor signalling was stimulated using 80 nM carbamyl choline (Aldrich N240-9) incubated with the cells for 4 h at 37° C./5% CO2 and monitored at the end of the incubation period using a Tecan SpectraFluor+ plate reader (λ—excitation 405 nm, emission 450 nm and 503 nm). M3 receptor antagonists under test were added to the assay at the beginning of the 4 h incubation period and compound activity measured as the concentration dependent inhibition of the carbamyl choline induced signal. Inhibition curves were plotted and IC50 values generated using a 4-parameter sigmoid fit and converted to Ki values using the Cheng-Prusoff correction and the KD value for carbamyl choline in the assay.

T1 sequence (P20309 whole entry): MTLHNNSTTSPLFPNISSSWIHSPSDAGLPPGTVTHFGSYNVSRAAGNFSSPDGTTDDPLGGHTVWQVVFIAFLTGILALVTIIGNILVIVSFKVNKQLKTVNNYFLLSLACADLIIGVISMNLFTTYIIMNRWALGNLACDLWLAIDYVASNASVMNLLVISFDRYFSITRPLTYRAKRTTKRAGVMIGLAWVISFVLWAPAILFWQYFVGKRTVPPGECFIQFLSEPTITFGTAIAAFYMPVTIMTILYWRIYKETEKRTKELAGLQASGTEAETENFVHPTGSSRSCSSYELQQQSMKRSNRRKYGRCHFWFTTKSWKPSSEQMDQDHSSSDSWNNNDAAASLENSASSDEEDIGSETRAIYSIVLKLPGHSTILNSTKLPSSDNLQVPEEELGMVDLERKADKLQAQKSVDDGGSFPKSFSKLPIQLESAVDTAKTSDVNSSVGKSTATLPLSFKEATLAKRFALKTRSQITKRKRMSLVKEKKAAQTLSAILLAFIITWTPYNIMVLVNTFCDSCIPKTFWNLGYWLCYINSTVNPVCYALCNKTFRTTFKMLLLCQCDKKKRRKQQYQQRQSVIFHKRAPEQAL

| Compound | Ki |
| --- | --- |
| CC(C)N(CC[C@H](c1ccccc1)c1cc(CCOc2ccc(CCNC(=O)c3ccc(F)c(O)c3)cc2)ccc1O)C(C)C [Example 25, 4-Fluoro-N-[2-(4-{2-[3-((1R)-3-diisopropylamino-1-phenyl-propyl)-4-hydroxy-phenyl]-ethoxy}-phenyl)-ethyl]-3-hydroxy-benzamide] | 0.751 nM |
| CC(C)N(CC[C@H](c1ccccc1)c1cc(CCOc2ccc(CCNS(=O)(=O)c3ccc(O)cc3)cc2)ccc1O)C(C)C [Example 27, N-[2-(4-{2-[3-((1R)-3-diisopropylamino-1-phenyl-propyl)-4-hydroxy-phenyl]-ethoxy}-phenyl)-ethyl]-4-hydroxy-benzenesulfonamide] | 1.32 nM |

Other lines, results leading:

| Ki | Compound |
| --- | --- |
| > 6.66 nM | CC(C)N(CC[C@H](c1ccccc1)c1cc(CCOc2ccc(CCNCc3ccc(F)c(O)c3)cc2)ccc1O)C(C)C [Example 23, 2-[(1R)-3-(diisopropylamino)-1-phenylpropyl]-4-[2-(4-{2-[(4-fluoro-3-hydroxybenzyl)amino]ethyl}phenoxy)ethyl]phenol] |
| 2.15 nM | CC(C)N(CC[C@H](c1ccccc1)c1cc(CCOc2ccc(CCNC(=O)c3cc(Cl)c(O)c(Cl)c3)cc2)ccc1O)C(C)C [Example 24, 3,5-Dichloro-N-[2-(4-{2-[3-((1R)-3-diisopropylamino-1-phenyl-propyl)-4-hydroxy-phenyl]-ethoxy}-phenyl)-ethyl]-4-hydroxy-benzamide] |
| 0.705 nM | CC(C)N(CC[C@H](c1ccccc1)c1cc(CCOc2ccc(CCNC(=O)c3ccc(O)cc3)cc2)ccc1O)C(C)C [Example 26, 4-Hydroxy-N-[2-(4-{2-[3-((1R)-3-diisopropylamino-1-phenyl-propyl)-4-hydroxy-phenyl]-ethoxy}-phenyl)-ethyl]-benzamide] |
